# ChEMBL document CHEMBL1130494, “Design and synthesis of a targeted set of aromatic amino acid derivatives for identification of new lead compounds” (Bioorg Med Chem Lett, 1997)
# Molecular target: T1, Gastrin/cholecystokinin type B receptor (Mus musculus, UniProt P56481)
# T1 sequence (P56481 whole entry): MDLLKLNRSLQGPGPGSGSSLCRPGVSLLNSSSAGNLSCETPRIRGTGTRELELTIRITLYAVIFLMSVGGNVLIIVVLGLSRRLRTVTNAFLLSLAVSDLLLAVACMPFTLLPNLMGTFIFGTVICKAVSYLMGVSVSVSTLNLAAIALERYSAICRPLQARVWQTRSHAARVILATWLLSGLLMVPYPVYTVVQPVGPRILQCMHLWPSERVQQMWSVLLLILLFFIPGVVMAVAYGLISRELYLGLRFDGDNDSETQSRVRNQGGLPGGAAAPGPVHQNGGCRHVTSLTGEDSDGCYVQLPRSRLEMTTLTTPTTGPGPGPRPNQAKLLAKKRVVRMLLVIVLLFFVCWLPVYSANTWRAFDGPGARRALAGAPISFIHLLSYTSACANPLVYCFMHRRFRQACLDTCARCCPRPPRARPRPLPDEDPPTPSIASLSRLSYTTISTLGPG
# Test: Concentration required for binding affinity to neuropeptide (CCK-B) receptor in mouse cerebral cortex
# Assay type: tissue-based
row,IC50 [nM],SMILES
1,2120,CC(C)CCNC(=O)[C@H](Cc1c[nH]c2ccccc12)NC(=O)OCc1ccccc1

# Molecular target: Neuromedin-B receptor (Homo sapiens, UniProt P28336)
# Sequence (P28336 whole entry): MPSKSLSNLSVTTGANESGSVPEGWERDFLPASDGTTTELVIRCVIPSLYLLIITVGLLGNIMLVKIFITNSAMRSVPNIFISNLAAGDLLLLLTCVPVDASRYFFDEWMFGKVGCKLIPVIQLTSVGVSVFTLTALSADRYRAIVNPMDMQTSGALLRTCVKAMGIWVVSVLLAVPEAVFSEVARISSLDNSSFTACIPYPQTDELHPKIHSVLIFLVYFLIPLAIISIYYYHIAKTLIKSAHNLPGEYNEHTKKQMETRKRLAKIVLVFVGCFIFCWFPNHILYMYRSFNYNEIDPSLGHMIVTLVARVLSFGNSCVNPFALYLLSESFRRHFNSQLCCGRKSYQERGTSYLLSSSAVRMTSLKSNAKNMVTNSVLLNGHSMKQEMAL
# Test: Binding affinity for human neuromedin B(hNMB) receptor expressed in CHO cells
# Assay type: cell-based
row,Ki [µM],SMILES
1,> 10,NCCCCOC(=O)N[C@@H](Cc1c[nH]c2ccccc12)C(=O)NCCc1ccccc1
2,> 10,NCCCCOC(=O)N[C@@H](Cc1c[nH]c2ccccc12)C(=O)NCCC(=O)O
3,> 10,CC(C)CCNC(=O)[C@H](Cc1c[nH]c2ccccc12)NC(=O)OCC(=O)O
4,> 10,COC(=O)N[C@@H](Cc1c[nH]c2ccccc12)C(=O)NCCCCCN
5,> 10,O=C(O)COC(=O)N[C@@H](Cc1c[nH]c2ccccc12)C(=O)NCCc1c[nH]c2ccccc12
6,0.037,CC(C)CNC(=O)C(Cc1c[nH]c2ccccc12)NC(=O)OCc1cn(C(c2ccccc2)(c2ccccc2)c2ccccc2)cn1 (stereo unspecified)
7,> 10,CC(C)OC(=O)N[C@@H](Cc1c[nH]c2ccccc12)C(=O)NCCC(=O)O
8,7.8,NCCCCCNC(=O)[C@H](Cc1c[nH]c2ccccc12)NC(=O)OCCc1c[nH]c2ccccc12
9,> 10,CC(C)OC(=O)N[C@@H](Cc1c[nH]c2ccccc12)C(=O)NCCO
10,2.7,O=C(N[C@@H](Cc1c[nH]c2ccccc12)C(=O)NCCc1ccccc1)OCc1c[nH]cn1
11,> 10,CC(C)CNC(=O)[C@H](Cc1c[nH]c2ccccc12)NC(=O)OCCCCN
12,8.9,NCCCCOC(=O)N[C@@H](Cc1c[nH]c2ccccc12)C(=O)NCCc1c[nH]c2ccccc12
13,2.8,O=C(N[C@@H](Cc1c[nH]c2ccccc12)C(=O)NCCc1c[nH]c2ccccc12)OCc1ccccc1
14,3.7,O=C(N[C@@H](Cc1c[nH]c2ccccc12)C(=O)NCCc1c[nH]c2ccccc12)OCc1c[nH]cn1
15,> 10,CC(C)CCNC(=O)[C@H](Cc1c[nH]c2ccccc12)NC(=O)OCC(C)C
16,1.1,O=C(N[C@@H](Cc1c[nH]c2ccccc12)C(=O)NCCc1ccccc1)OCCc1c[nH]c2ccccc12
17,0.98,O=C(N[C@@H](Cc1c[nH]c2ccccc12)C(=O)NCCc1c[nH]c2ccccc12)OCCc1c[nH]c2ccccc12
18,> 10,O=C(N[C@@H](Cc1c[nH]c2ccccc12)C(=O)NCCO)OCCc1c[nH]c2ccccc12
19,> 10,CC(C)CCNC(=O)[C@H](Cc1c[nH]c2ccccc12)NC(=O)OCCCCN
20,> 10,COC(=O)N[C@@H](Cc1c[nH]c2ccccc12)C(=O)NCCO
21,> 10,CC(C)COC(=O)N[C@@H](Cc1c[nH]c2ccccc12)C(=O)NCCCCCN

row,Ki [µM],SMILES
1,> 10,O=C(O)COC(=O)N[C@@H](Cc1c[nH]c2ccccc12)C(=O)NCCO
2,> 10,O=C(N[C@@H](Cc1c[nH]c2ccccc12)C(=O)NCCO)OCc1ccccc1
3,> 10,CC(C)COC(=O)N[C@@H](Cc1c[nH]c2ccccc12)C(=O)NCCO
4,3.9,CC(C)CCNC(=O)C(Cc1c[nH]c2ccccc12)NC(=O)OCc1c[nH]cn1 (stereo unspecified)
5,6.1,CC(C)CCNC(=O)[C@H](Cc1c[nH]c2ccccc12)NC(=O)OCc1ccccc1
6,> 10,CC(C)COC(=O)N[C@@H](Cc1c[nH]c2ccccc12)C(=O)NCCc1cnc[nH]1
7,> 10,COC(=O)N[C@@H](Cc1c[nH]c2ccccc12)C(=O)NCC(C)C
8,3.9,CC(C)CCNC(=O)[C@H](Cc1c[nH]c2ccccc12)NC(=O)OCc1cnc[nH]1
9,> 10,CC(C)CNC(=O)[C@H](Cc1c[nH]c2ccccc12)NC(=O)OCc1ccccc1
10,4.3,CC(C)COC(=O)N[C@@H](Cc1c[nH]c2ccccc12)C(=O)NCCc1ccccc1
11,> 10,CC(C)OC(=O)N[C@@H](Cc1c[nH]c2ccccc12)C(=O)NCCCCCN
12,> 10,COC(=O)N[C@@H](Cc1c[nH]c2ccccc12)C(=O)NCCC(C)C
13,2.6,O=C(N[C@@H](Cc1c[nH]c2ccccc12)C(=O)NCCc1ccccc1)OCc1ccccc1
14,3.5,CC(C)CNC(=O)[C@H](Cc1c[nH]c2ccccc12)NC(=O)OCCc1c[nH]c2ccccc12
15,> 10,CC(C)CNC(=O)[C@H](Cc1c[nH]c2ccccc12)NC(=O)OCC(=O)O
16,> 10,CC(C)OC(=O)N[C@@H](Cc1c[nH]c2ccccc12)C(=O)NCCc1c[nH]cn1
17,> 10,NCCCCOC(=O)N[C@@H](Cc1c[nH]c2ccccc12)C(=O)NCCc1cnc[nH]1
18,> 10,NCCCCOC(=O)N[C@@H](Cc1c[nH]c2ccccc12)C(=O)NCCO
19,> 10,COC(=O)N[C@@H](Cc1c[nH]c2ccccc12)C(=O)NCCc1c[nH]c2ccccc12
20,> 10,O=C(O)CCNC(=O)[C@H](Cc1c[nH]c2ccccc12)NC(=O)OCCc1c[nH]c2ccccc12
21,> 10,COC(=O)N[C@@H](Cc1c[nH]c2ccccc12)C(=O)NCCc1cnc[nH]1

row,Ki [µM],SMILES
1,> 10,NCCCCCNC(=O)[C@H](Cc1c[nH]c2ccccc12)NC(=O)OCCCCN
2,> 10,NCCCCCNC(=O)[C@H](Cc1c[nH]c2ccccc12)NC(=O)OCc1ccccc1
3,> 10,O=C(O)CCNC(=O)[C@H](Cc1c[nH]c2ccccc12)NC(=O)OCc1ccccc1
4,> 10,O=C(O)COC(=O)N[C@@H](Cc1c[nH]c2ccccc12)C(=O)NCCc1ccccc1
5,> 10,COC(=O)N[C@@H](Cc1c[nH]c2ccccc12)C(=O)NCCc1ccccc1
6,> 10,CC(C)CNC(=O)[C@H](Cc1c[nH]c2ccccc12)NC(=O)OCC(C)C
7,> 10,CC(C)CNC(=O)[C@H](Cc1c[nH]c2ccccc12)NC(=O)OCc1c[nH]cn1
8,> 10,CC(C)OC(=O)N[C@@H](Cc1c[nH]c2ccccc12)C(=O)NCCc1ccccc1
9,> 10,NCCCCCNC(=O)[C@H](Cc1c[nH]c2ccccc12)NC(=O)OCC(=O)O
10,5,O=C(N[C@@H](Cc1c[nH]c2ccccc12)C(=O)NCCc1c[nH]cn1)OCCc1c[nH]c2ccccc12
11,2.6,O=C(NC(Cc1c[nH]c2ccccc12)C(=O)NCCc1ccccc1)OCc1cnc[nH]1 (stereo unspecified)
12,> 10,COC(=O)N[C@@H](Cc1c[nH]c2ccccc12)C(=O)NCCC(=O)O
13,> 10,O=C(N[C@@H](Cc1c[nH]c2ccccc12)C(=O)NCCc1c[nH]cn1)OCc1ccccc1
14,> 10,CC(C)OC(=O)N[C@@H](Cc1c[nH]c2ccccc12)C(=O)NCCc1c[nH]c2ccccc12
15,4.7,CC(C)COC(=O)N[C@@H](Cc1c[nH]c2ccccc12)C(=O)NCCc1c[nH]c2ccccc12
16,> 10,CC(C)CNC(=O)[C@H](Cc1c[nH]c2ccccc12)NC(=O)OC(C)C
17,> 10,CC(C)CCNC(=O)[C@H](Cc1c[nH]c2ccccc12)NC(=O)OC(C)C
18,2.7,CC(C)CCNC(=O)[C@H](Cc1c[nH]c2ccccc12)NC(=O)OCCc1c[nH]c2ccccc12
19,> 10,CC(C)COC(=O)N[C@@H](Cc1c[nH]c2ccccc12)C(=O)NCCC(=O)O

# Molecular target: T2, Substance-K receptor (Mesocricetus auratus, UniProt P51144)
# T2 sequence (P51144 whole entry): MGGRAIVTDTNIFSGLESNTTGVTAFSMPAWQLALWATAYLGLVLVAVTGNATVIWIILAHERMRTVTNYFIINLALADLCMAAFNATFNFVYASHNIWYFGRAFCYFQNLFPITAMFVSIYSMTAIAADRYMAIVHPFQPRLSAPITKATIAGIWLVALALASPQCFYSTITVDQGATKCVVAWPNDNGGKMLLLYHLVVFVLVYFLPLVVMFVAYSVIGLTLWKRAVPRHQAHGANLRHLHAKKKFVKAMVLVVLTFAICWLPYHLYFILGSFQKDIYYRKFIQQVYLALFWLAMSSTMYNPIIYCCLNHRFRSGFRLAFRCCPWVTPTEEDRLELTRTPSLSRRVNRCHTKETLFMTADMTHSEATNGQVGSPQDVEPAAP
# Test: Concentration required for binding affinity to neurokinin (NK2) receptor in hamster urinary bladder
row,IC50 [µM],SMILES
1,3.27,O=C(N[C@@H](Cc1c[nH]c2ccccc12)C(=O)NCCc1ccccc1)OCc1ccccc1

# Molecular target: Substance-P receptor (Homo sapiens, UniProt P25103)
# Sequence (P25103 whole entry): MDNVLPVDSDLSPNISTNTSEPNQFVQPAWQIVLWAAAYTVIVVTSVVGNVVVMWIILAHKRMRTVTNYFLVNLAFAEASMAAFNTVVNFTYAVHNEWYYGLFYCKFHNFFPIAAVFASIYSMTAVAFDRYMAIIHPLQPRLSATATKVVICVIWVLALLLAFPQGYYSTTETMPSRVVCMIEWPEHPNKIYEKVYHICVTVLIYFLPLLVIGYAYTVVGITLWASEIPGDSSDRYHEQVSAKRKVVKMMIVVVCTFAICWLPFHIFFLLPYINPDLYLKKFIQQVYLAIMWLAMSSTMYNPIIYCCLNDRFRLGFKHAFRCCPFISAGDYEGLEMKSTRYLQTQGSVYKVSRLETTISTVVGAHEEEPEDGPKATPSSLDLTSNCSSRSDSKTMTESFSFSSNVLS
# Test: Concentration required for binding affinity to neurokinin (NK1) receptor in human IM9 cells
# Assay type: cell-based, IM-9
row,IC50 [nM],SMILES
1,430,CC(C)COC(=O)N[C@@H](Cc1c[nH]c2ccccc12)C(=O)NCCc1c[nH]c2ccccc12

# Molecular target: T3, Neuromedin-K receptor (Homo sapiens, UniProt P29371)
# T3 sequence (P29371 whole entry): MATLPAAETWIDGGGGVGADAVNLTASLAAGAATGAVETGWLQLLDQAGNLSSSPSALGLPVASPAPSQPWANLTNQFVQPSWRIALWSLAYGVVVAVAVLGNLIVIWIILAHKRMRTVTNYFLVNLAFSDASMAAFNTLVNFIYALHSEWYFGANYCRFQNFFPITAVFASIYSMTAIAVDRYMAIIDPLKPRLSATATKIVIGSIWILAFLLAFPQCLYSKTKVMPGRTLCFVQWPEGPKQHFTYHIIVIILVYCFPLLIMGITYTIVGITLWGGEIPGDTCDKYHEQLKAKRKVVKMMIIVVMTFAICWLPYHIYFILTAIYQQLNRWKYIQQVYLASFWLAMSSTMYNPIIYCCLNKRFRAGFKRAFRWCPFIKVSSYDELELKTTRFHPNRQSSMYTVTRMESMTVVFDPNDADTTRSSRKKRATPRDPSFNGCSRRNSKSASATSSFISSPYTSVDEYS
# Test: Concentration required for binding affinity to Tachykinin receptor 3 in chinese hamster ovary cells
# Assay type: cell-based, CHO
row,IC50 [µM],SMILES
1,9.42,CC(C)OC(=O)N[C@@H](Cc1c[nH]c2ccccc12)C(=O)NCCc1c[nH]c2ccccc12

# Molecular target: T4, Cholecystokinin receptor type A (Rattus norvegicus, UniProt P30551)
# T4 sequence (P30551 whole entry): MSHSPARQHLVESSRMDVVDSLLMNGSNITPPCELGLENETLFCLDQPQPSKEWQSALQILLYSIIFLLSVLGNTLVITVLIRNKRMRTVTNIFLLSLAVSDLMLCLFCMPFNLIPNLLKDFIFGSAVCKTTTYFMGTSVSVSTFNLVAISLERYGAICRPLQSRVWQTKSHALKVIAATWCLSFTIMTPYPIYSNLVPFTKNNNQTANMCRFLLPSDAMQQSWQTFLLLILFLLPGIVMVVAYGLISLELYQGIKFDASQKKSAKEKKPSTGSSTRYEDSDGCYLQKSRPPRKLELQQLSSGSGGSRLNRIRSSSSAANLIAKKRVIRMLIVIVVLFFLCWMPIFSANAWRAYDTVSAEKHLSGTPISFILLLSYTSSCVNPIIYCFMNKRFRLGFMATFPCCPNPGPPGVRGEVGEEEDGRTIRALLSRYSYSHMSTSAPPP
# Test: Concentration required for binding affinity to neuropeptide (CCK-A) receptor in rat pancrea
row,IC50 [nM],SMILES
1,450,O=C(N[C@@H](Cc1c[nH]c2ccccc12)C(=O)NCCc1c[nH]c2ccccc12)OCc1ccccc1
